Key:
[1] = target: Mitogen-activated protein kinase 8 (Homo sapiens) (UniProt P45983); assay: Inhibition of JNK1alpha1 (unknown origin) at 0.1 uM relative to control
[2] = target: Cytoplasmic tyrosine-protein kinase BMX (Homo sapiens) (UniProt P51813); assay: Inhibition of Bmx (unknown origin) at 0.1 uM relative to control
[3] = target: Proto-oncogene tyrosine-protein kinase Src (Homo sapiens) (UniProt P12931); assay: Inhibition of Src (unknown origin) at 0.1 uM relative to control
[4] = target: Ribosomal protein S6 kinase alpha-3 (Homo sapiens) (UniProt P51812); assay: Inhibition of Rsk2 (unknown origin) at 0.1 uM relative to control
[5] = target: Serine/threonine-protein kinase PAK 2 (Homo sapiens, UniProt Q13177); assay: Inhibition of PAK2 (unknown origin) at 0.1 uM relative to control
[6] = target: Mitogen-activated protein kinase 10 (Homo sapiens) (UniProt P53779); assay: Inhibition of JNK3 (unknown origin) at 0.1 uM relative to control
[7] = target: Serine/threonine-protein kinase N1 (Homo sapiens) (UniProt Q16512); assay: Inhibition of PRK1 (unknown origin) at 0.1 uM relative to control
[8] = target: Tyrosine-protein kinase Blk (Homo sapiens) (UniProt P51451); assay: Inhibition of Blk (unknown origin) at 0.1 uM relative to control
[9] = target: Tyrosine-protein kinase ABL2 (Homo sapiens) (UniProt P42684); assay: Inhibition of Arg (unknown origin) at 0.1 uM relative to control
[10] = target: Tyrosine-protein kinase Mer (Homo sapiens) (UniProt Q12866); assay: Inhibition of Mer (unknown origin) at 0.1 uM relative to control
[11] = target: Serine/threonine-protein kinase TAO1 (Homo sapiens) (UniProt Q7L7X3); assay: Inhibition of TAO1 (unknown origin) at 0.1 uM relative to control
[12] = target: Macrophage-stimulating protein receptor (Homo sapiens) (UniProt Q04912); assay: Inhibition of Ron (unknown origin) at 0.1 uM relative to control
[13] = target: Casein kinase II subunit alpha (Homo sapiens) (UniProt P68400); assay: Inhibition of CK2alpha1 (unknown origin) at 0.1 uM relative to control
[14] = target: Epidermal growth factor receptor (Homo sapiens) (UniProt P00533); assay: Inhibition of EGFR (unknown origin) at 0.1 uM relative to control
[15] = target: Glycogen synthase kinase-3 alpha (Homo sapiens) (UniProt P49840); assay: Inhibition of GSK3alpha (unknown origin) at 0.1 uM relative to control
[16] = target: Vascular endothelial growth factor receptor 1 (Homo sapiens) (UniProt P17948); assay: Inhibition of Flt1 (unknown origin) at 0.1 uM relative to control
[17] = target: Mitogen-activated protein kinase 14 (Homo sapiens) (UniProt Q16539); assay: Inhibition of p38alpha (unknown origin) at 0.1 uM relative to control
[18] = target: Serine/threonine-protein kinase PAK 6 (Homo sapiens, UniProt Q9NQU5); assay: Inhibition of PAK6 (unknown origin) at 0.1 uM relative to control
[19] = target: Ephrin type-A receptor 1 (Homo sapiens) (UniProt P21709); assay: Inhibition of EphA1 (unknown origin) at 0.1 uM relative to control
[20] = target: Dual specificity mitogen-activated protein kinase kinase 1 (Homo sapiens) (UniProt Q02750); assay: Inhibition of MEK1 (unknown origin) at 0.1 uM relative to control
[21] = target: Serine/threonine-protein kinase D1 (Homo sapiens) (UniProt Q15139); assay: Inhibition of PKD1 (unknown origin) at 0.1 uM relative to control
[22] = target: Serine/threonine-protein kinase PAK 5 (Homo sapiens, UniProt Q9P286); assay: Inhibition of PAK5 (unknown origin) at 0.1 uM relative to control
[23] = target: Inhibitor of nuclear factor kappa-B kinase subunit beta (Homo sapiens) (UniProt O14920); assay: Inhibition of IKK beta (unknown origin) at 0.1 uM relative to control
[24] = target: Serine/threonine-protein kinase PAK 4 (Homo sapiens, UniProt O96013); assay: Inhibition of PAK4 (unknown origin) at 0.1 uM relative to control
[25] = species: Homo sapiens; assay: Inhibition of PDGFRalpha V560D mutant (unknown origin) at 0.1 uM relative to control
[26] = target: High affinity nerve growth factor receptor (Homo sapiens) (UniProt P04629); assay: Inhibition of TrkA (unknown origin) at 0.1 uM relative to control
[27] = target: Protein-tyrosine kinase 6 (Homo sapiens) (UniProt Q13882); assay: Inhibition of Brk (unknown origin) at 0.1 uM relative to control
[28] = target: 5'-AMP-activated protein kinase catalytic subunit alpha-1 (Homo sapiens) (UniProt Q13131); assay: Inhibition of PRKAA1 (unknown origin) at 0.1 uM relative to control
[29] = target: Dual specificity tyrosine-phosphorylation-regulated kinase 3 (Homo sapiens) (UniProt O43781); assay: Inhibition of DYRK3 (unknown origin) at 0.1 uM relative to control
[30] = target: RAC-alpha serine/threonine-protein kinase (Homo sapiens) (UniProt P31749); assay: Inhibition of AKT1 (unknown origin) at 0.1 uM relative to control
[31] = target: Serine/threonine-protein kinase Sgk3 (Homo sapiens) (UniProt Q96BR1); assay: Inhibition of SGK3 (unknown origin) at 0.1 uM relative to control
[32] = target: Myosin light chain kinase 2, skeletal/cardiac muscle (Homo sapiens) (UniProt Q9H1R3); assay: Inhibition of MYLK2 (unknown origin) at 0.1 uM relative to control
[33] = target: Insulin receptor-related protein (Homo sapiens) (UniProt P14616); assay: Inhibition of IRR (unknown origin) at 0.1 uM relative to control
[34] = target: Glycogen synthase kinase-3 beta (Homo sapiens) (UniProt P49841); assay: Inhibition of GSK beta (unknown origin) at 0.1 uM relative to control
[35] = target: Ribosomal protein S6 kinase alpha-2 (Homo sapiens) (UniProt Q15349); assay: Inhibition of Rsk3 (unknown origin) at 0.1 uM relative to control
[36] = target: Serine/threonine-protein kinase pim-1 (Homo sapiens) (UniProt P11309); assay: Inhibition of PIM1 (unknown origin) at 0.1 uM relative to control
[37] = target: Fibroblast growth factor receptor 3 (Homo sapiens) (UniProt P22607); assay: Inhibition of FGFR3 (unknown origin) at 0.1 uM relative to control
[38] = target: Tyrosine-protein kinase ABL1 (Homo sapiens) (UniProt P00519); assay: Inhibition of Abl (unknown origin) at 0.1 uM relative to control
[39] = target: Proto-oncogene tyrosine-protein kinase receptor Ret (Homo sapiens) (UniProt P07949); assay: Inhibition of Ret (unknown origin) at 0.1 uM relative to control
[40] = target: Platelet-derived growth factor receptor beta (Homo sapiens) (UniProt P09619); assay: Inhibition of PDGFRbeta (unknown origin) at 0.1 uM relative to control

Dual specificity mitogen-activated protein kinase kinase 1 (Homo sapiens), sequence (Q02750 whole entry): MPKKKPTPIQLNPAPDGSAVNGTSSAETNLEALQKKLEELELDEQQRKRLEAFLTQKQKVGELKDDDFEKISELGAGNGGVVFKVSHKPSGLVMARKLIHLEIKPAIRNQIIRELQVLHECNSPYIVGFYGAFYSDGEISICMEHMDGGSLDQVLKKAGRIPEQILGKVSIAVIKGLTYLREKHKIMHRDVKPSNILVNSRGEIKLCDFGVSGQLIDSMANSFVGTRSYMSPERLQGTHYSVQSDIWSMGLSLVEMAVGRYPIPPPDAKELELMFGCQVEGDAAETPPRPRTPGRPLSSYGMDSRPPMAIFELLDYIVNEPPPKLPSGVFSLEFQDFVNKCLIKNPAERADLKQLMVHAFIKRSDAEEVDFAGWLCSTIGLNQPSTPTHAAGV
Ephrin type-A receptor 1 (Homo sapiens), sequence (P21709 whole entry): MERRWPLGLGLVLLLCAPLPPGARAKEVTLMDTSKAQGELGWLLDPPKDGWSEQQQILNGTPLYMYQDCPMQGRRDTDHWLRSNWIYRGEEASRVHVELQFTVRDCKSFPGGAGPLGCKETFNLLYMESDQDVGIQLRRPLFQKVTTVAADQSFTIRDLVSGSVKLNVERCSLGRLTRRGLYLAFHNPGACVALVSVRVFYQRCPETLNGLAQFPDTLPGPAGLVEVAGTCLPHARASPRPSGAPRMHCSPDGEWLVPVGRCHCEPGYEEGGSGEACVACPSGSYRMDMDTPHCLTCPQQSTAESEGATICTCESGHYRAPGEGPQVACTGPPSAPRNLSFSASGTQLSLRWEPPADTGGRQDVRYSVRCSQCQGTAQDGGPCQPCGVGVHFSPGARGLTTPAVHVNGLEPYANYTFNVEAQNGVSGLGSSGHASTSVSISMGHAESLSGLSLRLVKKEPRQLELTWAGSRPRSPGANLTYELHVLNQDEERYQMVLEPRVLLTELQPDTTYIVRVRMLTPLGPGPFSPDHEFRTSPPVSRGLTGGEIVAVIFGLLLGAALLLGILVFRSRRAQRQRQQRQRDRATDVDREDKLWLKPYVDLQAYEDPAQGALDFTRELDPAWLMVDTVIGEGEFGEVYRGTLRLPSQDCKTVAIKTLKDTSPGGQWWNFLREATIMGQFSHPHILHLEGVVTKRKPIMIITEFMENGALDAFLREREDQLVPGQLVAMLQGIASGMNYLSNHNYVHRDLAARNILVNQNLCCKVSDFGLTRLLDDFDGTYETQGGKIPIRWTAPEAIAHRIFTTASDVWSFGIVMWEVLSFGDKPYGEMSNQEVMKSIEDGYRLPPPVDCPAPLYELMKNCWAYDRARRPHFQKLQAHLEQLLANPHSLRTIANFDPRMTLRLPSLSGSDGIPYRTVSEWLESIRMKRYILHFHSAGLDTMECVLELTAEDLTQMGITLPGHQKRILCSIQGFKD
Fibroblast growth factor receptor 3 (Homo sapiens), sequence (P22607 23-806 limits assumed): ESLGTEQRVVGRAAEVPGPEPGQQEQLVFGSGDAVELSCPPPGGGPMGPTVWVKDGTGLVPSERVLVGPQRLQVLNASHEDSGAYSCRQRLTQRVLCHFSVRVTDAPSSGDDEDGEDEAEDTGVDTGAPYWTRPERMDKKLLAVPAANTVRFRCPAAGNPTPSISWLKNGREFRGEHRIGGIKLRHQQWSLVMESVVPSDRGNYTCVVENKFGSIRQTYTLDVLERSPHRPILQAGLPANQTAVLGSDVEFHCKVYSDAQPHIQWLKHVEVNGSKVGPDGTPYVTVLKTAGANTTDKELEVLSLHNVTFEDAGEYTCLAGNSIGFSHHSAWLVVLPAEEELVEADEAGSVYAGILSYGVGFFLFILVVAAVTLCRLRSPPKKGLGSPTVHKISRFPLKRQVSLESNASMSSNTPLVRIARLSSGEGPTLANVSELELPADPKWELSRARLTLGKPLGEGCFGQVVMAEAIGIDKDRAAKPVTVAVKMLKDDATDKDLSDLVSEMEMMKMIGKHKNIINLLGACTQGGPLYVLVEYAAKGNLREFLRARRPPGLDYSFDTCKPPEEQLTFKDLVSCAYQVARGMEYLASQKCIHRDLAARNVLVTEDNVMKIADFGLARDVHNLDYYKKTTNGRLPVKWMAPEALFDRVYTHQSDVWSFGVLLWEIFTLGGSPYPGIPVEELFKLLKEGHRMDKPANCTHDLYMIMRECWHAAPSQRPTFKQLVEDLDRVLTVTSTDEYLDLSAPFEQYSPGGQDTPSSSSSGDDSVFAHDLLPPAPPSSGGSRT
Vascular endothelial growth factor receptor 1 (Homo sapiens), sequence (P17948 whole entry): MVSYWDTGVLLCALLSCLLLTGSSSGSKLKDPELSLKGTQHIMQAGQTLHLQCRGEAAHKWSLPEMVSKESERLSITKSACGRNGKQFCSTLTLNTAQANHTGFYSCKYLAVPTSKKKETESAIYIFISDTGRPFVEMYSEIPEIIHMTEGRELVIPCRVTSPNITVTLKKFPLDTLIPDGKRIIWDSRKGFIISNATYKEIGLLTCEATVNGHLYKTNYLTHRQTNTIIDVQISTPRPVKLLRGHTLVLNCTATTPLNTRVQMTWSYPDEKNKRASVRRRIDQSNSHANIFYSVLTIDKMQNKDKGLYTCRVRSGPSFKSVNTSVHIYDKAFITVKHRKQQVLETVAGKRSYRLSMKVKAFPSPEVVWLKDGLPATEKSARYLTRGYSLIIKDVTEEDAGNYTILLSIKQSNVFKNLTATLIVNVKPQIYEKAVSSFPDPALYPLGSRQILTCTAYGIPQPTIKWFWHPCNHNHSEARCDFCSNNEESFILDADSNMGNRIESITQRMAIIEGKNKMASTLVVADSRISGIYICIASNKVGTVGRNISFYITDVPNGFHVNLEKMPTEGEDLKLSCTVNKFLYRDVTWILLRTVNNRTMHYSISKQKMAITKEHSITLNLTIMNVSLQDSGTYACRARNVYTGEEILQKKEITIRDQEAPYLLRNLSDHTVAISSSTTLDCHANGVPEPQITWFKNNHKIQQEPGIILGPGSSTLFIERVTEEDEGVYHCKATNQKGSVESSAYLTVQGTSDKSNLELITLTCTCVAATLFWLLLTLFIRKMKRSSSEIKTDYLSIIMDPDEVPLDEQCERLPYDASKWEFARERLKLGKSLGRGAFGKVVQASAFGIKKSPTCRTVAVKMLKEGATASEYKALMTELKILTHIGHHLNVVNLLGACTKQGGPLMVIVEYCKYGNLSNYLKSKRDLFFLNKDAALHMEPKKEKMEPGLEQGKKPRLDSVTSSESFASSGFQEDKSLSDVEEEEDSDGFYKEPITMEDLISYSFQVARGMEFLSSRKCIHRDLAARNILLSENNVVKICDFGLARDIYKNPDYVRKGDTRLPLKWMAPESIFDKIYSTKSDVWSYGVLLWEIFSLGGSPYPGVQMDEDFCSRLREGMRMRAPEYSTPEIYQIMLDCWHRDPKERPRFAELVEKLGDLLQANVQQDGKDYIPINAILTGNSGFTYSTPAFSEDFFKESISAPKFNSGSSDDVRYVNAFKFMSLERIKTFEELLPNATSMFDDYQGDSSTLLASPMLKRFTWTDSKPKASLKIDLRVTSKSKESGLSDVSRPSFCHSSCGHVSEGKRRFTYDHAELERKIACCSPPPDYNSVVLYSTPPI
Mitogen-activated protein kinase 8 (Homo sapiens), sequence (P45983 whole entry): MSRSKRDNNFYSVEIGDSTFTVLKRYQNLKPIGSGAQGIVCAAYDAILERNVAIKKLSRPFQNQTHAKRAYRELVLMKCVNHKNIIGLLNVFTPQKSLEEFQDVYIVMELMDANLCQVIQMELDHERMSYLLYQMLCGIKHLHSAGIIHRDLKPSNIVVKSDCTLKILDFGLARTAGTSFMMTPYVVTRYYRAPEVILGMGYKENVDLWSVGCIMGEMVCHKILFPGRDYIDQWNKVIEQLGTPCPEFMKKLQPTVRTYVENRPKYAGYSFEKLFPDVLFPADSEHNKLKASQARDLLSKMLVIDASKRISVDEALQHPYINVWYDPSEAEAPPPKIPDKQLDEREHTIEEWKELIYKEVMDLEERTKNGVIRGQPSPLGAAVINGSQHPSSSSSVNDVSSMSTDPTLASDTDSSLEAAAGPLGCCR
Inhibitor of nuclear factor kappa-B kinase subunit beta (Homo sapiens), sequence (O14920 whole entry): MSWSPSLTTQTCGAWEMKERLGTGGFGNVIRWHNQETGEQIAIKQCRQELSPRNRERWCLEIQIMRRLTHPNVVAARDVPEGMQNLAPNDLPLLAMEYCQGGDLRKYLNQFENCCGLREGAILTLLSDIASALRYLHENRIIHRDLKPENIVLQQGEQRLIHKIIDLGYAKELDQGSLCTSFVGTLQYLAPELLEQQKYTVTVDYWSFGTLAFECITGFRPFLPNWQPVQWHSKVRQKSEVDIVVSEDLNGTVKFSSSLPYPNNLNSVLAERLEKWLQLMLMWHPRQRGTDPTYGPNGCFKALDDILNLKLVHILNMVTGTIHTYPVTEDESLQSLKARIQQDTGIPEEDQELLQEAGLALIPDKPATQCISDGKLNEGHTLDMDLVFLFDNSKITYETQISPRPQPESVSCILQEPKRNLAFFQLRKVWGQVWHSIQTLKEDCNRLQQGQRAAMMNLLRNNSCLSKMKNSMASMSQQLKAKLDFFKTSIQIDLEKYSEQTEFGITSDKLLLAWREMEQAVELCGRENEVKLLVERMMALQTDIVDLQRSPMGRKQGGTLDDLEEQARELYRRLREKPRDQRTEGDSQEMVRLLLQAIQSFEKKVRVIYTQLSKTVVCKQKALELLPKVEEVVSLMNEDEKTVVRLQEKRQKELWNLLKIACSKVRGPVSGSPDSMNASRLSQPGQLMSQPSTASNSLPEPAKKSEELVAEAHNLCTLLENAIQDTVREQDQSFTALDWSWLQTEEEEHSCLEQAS
Serine/threonine-protein kinase pim-1 (Homo sapiens), sequence (P11309 whole entry, looked up): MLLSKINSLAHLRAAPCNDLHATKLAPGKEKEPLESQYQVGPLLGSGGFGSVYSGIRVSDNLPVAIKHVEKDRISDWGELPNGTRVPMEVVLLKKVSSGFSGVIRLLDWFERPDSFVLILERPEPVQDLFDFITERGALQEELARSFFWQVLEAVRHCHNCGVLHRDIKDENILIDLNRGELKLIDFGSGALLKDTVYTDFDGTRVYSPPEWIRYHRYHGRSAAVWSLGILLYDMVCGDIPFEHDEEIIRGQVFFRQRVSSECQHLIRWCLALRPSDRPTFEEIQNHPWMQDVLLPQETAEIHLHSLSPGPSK

inhibition [1] [%] | inhibition [2] [%] | inhibition [3] [%] | inhibition [4] [%] | inhibition [5] [%] | inhibition [6] [%] | inhibition [7] [%] | inhibition [8] [%] | inhibition [9] [%] | inhibition [10] [%] | inhibition [11] [%] | inhibition [12] [%] | inhibition [13] [%] | inhibition [14] [%] | inhibition [15] [%] | inhibition [16] [%] | inhibition [17] [%] | inhibition [18] [%] | inhibition [19] [%] | inhibition [20] [%] | SMILES | other results
51 | 91.5 | 92.9 | 6 | 97.7 | 2.3 | -1.6 | 86 | 95.3 | 53.8 | 91.5 | 92.1 | -3.5 | 38 | 40.6 | 18.6 | 34.8 | 21.8 | 90.7 | 23.8 | CN1CCc2cc(-c3cnc4[nH]cc(C(=O)c5ccccc5Cl)c4c3)ccc2C1 | inhibition [21]: 49.5%; inhibition [22]: 28.5%; inhibition [23]: 3.3%; inhibition [24]: 29.2%; inhibition [25]: 66.9%; inhibition [26]: 51.6%; inhibition [27]: 92.5%; inhibition [28]: 16%; inhibition [29]: 3.8%; inhibition [30]: 3.3%; inhibition [31]: 19.5%; inhibition [32]: 25.5%; inhibition [33]: 14.5%; inhibition [34]: 11%; inhibition [35]: -6%; inhibition [36]: -2%; inhibition [37]: 45.5%; inhibition [38]: 99.5%; inhibition [39]: 18.4%; inhibition [40]: 96%
4.1 | 11.6 | 1.9 | 11.7 | 14.9 | 2.7 | -2.3 | 7.2 | 10.2 | 8.2 | -0.2 | 0.3 | 5.2 | 2.4 | 9.7 | -6 | 4.4 | 49.9 | 5 | 2.5 | COCCNc1nc2ccc(C#CC3(O)CCCCC3)cc2n1-c1ccnc(N)n1 | inhibition [21]: 16.4%; inhibition [22]: 75.1%; inhibition [23]: 6.5%; inhibition [24]: 89.5%; inhibition [25]: -3.5%; inhibition [26]: 9%; inhibition [27]: 10.2%; inhibition [28]: 10.6%; inhibition [29]: 0.9%; inhibition [30]: 1.1%; inhibition [31]: 9.3%; inhibition [32]: -1.5%; inhibition [33]: 7.4%; inhibition [34]: 4.6%; inhibition [35]: 14.9%; inhibition [36]: 3.8%; inhibition [37]: 7.6%; inhibition [38]: -0.2%; inhibition [39]: 4.4%; inhibition [40]: 0.7%

— ChEMBL document CHEMBL5678812, “Inhibitors of p21-activated kinases (PAKs)” (J Med Chem, 2015)
